The record followed here is ChEMBL document CHEMBL1135095, “3-D QSAR studies on new dibenzyltin(IV) anticancer agents by comparative molecular field analysis (CoMFA)” (Bioorg Med Chem Lett, 2002).

Data set [1] is filed under the species Mus musculus. The data set is described as follows: Lethal dose in swiss albino mice by peroral route. It counts as toxicity, organism-based. As to conditions: in vivo, po.
Data set [2] has as its system WiDr. The data set is described as follows: In vitro antitumor activity against WIDR human cancer cell line. The class given is functional, cell-based.
In data set [3] the test system is SK-MEL19. The data set is described as follows: In vitro antitumor activity against MEL 19 human cancer cell line. It counts as functional, cell-based.
In data set [4] the test system is IGROV-1. As to the kind of experiment: In vitro antitumor activity against IGROV human cancer cell line. The class given is functional, cell-based.

By LD50 is commonly meant the dose at which mortality reaches 50%. Read a high LD50 as lower toxicity. In data set [1], CARBOPLATIN [listing 1 of 2 here] gave an LD50 of 150 mg/kg.

Take CARBOPLATIN [listing 2 of 2 here]: the ID50 in data set [2] was 943 µM; in data set [3] it was 1480 µM; in data set [4] it was 646 µM.

Turning to CISPLATIN [listing 1 of 2 here], in data set [1], the median lethal dose (LD50) amounted to 31 mg/kg.

With CISPLATIN [listing 2 of 2 here], the ID50 came to 450 µM in data set [2], 260 µM in data set [3] and 75 µM in data set [4].
